Target: JMJD2C (Homo sapiens (Human), UniProt Q9H3R0)
Test: JMJD2C TR-FRET in vitro enzyme inhibition assay
Type: biochemical
Details: 0.3 nM JMJD2C, H3K9me3-biotin peptide, 2 μM alpha-ketoglutaric acid
From the text: This assay determines the ability of a test compound to inhibit Jarid1A, Jarid1B, and JMJD2C demethylase activity. Baculovirus expressed Jarid1A (GenBank Accession #NM_001042603, AA1-1090) was purchased from BPS Bioscience (Cat#50110). Baculovirus expressed Jarid1B (GenBank Accession #NM_006618, AA 2-751) was purchased from BPS Bioscience (Cat #50121) or custom made by MolecularThroughput. Baculovirus-expressed JMJD2C (GenBank Accession #BC143571, AA 2-372) was purchased from BPS Bioscience (Cat#50105).
The ability of test compounds to inhibit the activity of JMJD2C was determined in 384-well plate format under the following reaction conditions: 0.3 nM JMJD2C, 300 nM H3K9me3-biotin labeled peptide (Anaspec cat #64360), 2 μM alpha-ketoglutaric acid in assay buffer of 50 mM HEPES, pH7.3, 0.005% Brij35, 0.5 mM TCEP, 0.2 mg/ml BSA, 50 μM sodium L-ascorbate, and 2 μM ammonium iron(II) sulfate. Reaction product was determined quantitatively by TR-FRET after the addition of detection reagent Phycolink Streptavidin-allophycocyanin (Prozyme) and Europium-anti-di-methylated histone H3 lysine 9 (H3K9me2) antibody (PerkinElmer) in the presence of 5 mM EDTA in LANCE detection buffer (PerkinElmer) at a final concentration of 50 nM and 1 nM, respectively. […]

Chain of JMJD2C (Q9H3R0 2-372): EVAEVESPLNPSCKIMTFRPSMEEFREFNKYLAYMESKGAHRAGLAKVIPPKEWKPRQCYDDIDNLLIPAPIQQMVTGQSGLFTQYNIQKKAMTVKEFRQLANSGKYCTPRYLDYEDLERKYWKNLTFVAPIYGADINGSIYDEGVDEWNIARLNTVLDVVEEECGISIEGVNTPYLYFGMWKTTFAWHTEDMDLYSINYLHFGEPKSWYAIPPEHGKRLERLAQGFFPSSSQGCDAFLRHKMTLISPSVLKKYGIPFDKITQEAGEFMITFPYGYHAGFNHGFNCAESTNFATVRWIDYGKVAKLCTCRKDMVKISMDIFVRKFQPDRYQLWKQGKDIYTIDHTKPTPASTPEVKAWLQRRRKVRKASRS

Compound	IC50 [nM]
O=C(O)c1ccncc1NCC1(O)CCCc2cc(Cl)ccc21 (centres unmarked) [Example 68, 3-{[(6-chloro-1-hydroxy-1,2,3,4-tetrahydronaphthalen-1-yl)methyl]amino}pyridine-4-carboxylic acid]	100 to 1000
3-{[(6-fluoro-3,4-dihydro-2H-chromen-4-yl)methyl]amino}pyridine-4-carboxylic acid [Example 65]	< 100

— US9828343B2, “Histone demethylase inhibitors” (Celgene Quanticel Research, Inc., priority 2012, dated 2017)
